Test results from ChEMBL document CHEMBL3991601, “The target landscape of clinical kinase drugs” (Science, 2017).
Activity calls are given as the source filed them. Cut-off read from the data, not from the text of the source, for most assays here: actives have a measured Kd and inactives only a lower limit.

Target: T1, DNA replication licensing factor MCM4 (Homo sapiens, UniProt P33991)
T1 sequence (P33991 whole entry): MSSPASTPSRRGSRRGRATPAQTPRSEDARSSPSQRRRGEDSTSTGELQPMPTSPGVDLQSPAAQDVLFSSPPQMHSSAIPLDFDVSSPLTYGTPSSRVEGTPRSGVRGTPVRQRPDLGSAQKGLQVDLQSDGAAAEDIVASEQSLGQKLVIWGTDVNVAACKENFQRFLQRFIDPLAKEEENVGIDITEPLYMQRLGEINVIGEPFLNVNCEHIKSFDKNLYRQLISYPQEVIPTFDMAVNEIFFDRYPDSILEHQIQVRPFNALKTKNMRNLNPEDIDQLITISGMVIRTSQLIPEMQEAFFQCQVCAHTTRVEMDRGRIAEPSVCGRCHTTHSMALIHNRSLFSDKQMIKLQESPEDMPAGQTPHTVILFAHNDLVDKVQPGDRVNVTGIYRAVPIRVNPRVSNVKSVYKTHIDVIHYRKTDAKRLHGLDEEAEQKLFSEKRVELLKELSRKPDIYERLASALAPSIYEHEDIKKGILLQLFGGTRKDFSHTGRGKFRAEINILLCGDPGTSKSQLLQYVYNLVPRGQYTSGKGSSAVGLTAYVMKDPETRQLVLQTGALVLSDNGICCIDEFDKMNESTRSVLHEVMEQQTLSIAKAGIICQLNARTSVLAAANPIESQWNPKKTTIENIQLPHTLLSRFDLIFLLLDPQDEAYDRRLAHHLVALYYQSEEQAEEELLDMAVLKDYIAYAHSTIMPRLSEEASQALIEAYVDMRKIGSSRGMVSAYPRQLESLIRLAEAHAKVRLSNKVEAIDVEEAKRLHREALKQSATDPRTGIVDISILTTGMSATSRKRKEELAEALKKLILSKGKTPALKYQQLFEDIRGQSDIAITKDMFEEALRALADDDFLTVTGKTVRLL
Note: in the data inactive means no Kd found up to 30 µM.

SMILES	Kd
CN1CCC(CNc2ccc3ncc(-c4cccc(OC(F)(F)F)c4)n3n2)CC1 [SGI-1776]	> 30 µM (inactive)
C[C@@H]1CN(Cc2ccc(F)cc2)[C@@H](C)CN1C(=O)c1cc2c(C(=O)C(=O)N(C)C)cn(C)c2cc1Cl [TALMAPIMOD]	> 30 µM (inactive)
CN1CCC(COc2cnc(-c3cccc(Cn4nc(-c5cccc(C#N)c5)ccc4=O)c3)nc2)CC1 [TEPOTINIB]	> 30 µM (inactive)

Target: Proto-oncogene tyrosine-protein kinase Src (Homo sapiens, UniProt P12931)
Sequence (P12931 2-536 limits assumed): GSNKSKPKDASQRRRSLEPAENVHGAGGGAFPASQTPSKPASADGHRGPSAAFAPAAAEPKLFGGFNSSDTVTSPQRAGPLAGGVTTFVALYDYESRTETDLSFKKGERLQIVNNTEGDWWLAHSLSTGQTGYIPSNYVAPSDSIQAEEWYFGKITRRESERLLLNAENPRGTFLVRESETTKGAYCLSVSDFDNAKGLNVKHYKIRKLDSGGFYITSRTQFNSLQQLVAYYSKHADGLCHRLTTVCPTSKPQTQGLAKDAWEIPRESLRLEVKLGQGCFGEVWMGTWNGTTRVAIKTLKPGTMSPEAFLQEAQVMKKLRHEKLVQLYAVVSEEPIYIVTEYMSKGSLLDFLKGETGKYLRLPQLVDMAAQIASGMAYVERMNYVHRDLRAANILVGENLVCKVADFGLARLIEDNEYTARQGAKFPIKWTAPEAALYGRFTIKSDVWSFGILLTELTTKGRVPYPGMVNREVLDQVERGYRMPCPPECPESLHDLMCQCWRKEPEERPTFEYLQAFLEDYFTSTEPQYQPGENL

SMILES	Kd
CN1CCC(CNc2ccc3ncc(-c4cccc(OC(F)(F)F)c4)n3n2)CC1 [SGI-1776]	> 30 µM (inactive)
C[C@@H]1CN(Cc2ccc(F)cc2)[C@@H](C)CN1C(=O)c1cc2c(C(=O)C(=O)N(C)C)cn(C)c2cc1Cl [TALMAPIMOD]	> 30 µM (inactive)
CN1CCC(COc2cnc(-c3cccc(Cn4nc(-c5cccc(C#N)c5)ccc4=O)c3)nc2)CC1 [TEPOTINIB]	> 30 µM (inactive)

Target: Rho-associated protein kinase 1 (Homo sapiens, UniProt Q13464)
Sequence (Q13464 whole entry): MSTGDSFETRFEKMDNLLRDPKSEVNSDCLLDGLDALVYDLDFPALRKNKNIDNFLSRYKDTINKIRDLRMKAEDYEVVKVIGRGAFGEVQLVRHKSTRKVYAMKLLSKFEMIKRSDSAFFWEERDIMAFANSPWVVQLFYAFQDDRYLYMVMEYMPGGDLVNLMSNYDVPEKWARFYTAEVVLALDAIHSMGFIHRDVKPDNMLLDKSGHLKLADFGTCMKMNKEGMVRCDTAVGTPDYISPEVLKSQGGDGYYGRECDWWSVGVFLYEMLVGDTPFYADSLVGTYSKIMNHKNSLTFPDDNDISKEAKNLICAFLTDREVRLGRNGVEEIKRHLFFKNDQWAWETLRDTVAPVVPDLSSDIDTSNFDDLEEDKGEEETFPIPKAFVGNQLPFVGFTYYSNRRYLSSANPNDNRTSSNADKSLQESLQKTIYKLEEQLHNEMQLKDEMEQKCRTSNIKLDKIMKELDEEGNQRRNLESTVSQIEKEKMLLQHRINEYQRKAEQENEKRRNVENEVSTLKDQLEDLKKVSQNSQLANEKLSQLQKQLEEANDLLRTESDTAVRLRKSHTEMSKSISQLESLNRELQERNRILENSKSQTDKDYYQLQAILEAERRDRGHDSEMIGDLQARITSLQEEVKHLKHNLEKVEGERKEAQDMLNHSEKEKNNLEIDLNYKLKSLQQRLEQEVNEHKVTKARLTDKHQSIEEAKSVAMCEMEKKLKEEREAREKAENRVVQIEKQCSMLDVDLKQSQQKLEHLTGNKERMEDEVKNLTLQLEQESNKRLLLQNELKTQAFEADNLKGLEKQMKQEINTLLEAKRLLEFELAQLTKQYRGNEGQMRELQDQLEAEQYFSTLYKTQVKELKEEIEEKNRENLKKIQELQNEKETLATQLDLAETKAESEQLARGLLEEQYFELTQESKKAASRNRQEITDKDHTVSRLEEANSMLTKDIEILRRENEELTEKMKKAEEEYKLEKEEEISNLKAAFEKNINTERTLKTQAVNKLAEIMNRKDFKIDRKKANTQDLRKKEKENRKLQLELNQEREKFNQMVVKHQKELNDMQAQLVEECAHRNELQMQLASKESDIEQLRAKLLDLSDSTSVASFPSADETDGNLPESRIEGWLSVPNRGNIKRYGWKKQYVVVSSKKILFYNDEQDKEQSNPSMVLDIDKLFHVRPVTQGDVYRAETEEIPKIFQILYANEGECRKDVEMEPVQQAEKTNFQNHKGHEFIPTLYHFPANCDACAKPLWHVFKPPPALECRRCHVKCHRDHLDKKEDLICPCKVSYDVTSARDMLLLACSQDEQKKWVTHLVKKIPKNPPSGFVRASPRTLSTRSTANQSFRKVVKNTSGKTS

SMILES	Kd
CN1CCC(CNc2ccc3ncc(-c4cccc(OC(F)(F)F)c4)n3n2)CC1 [SGI-1776]	> 30 µM (inactive)
C[C@@H]1CN(Cc2ccc(F)cc2)[C@@H](C)CN1C(=O)c1cc2c(C(=O)C(=O)N(C)C)cn(C)c2cc1Cl [TALMAPIMOD]	> 30 µM (inactive)
CN1CCC(COc2cnc(-c3cccc(Cn4nc(-c5cccc(C#N)c5)ccc4=O)c3)nc2)CC1 [TEPOTINIB]	> 30 µM (inactive)

Target: T2, ADP/ATP translocase 3 (Homo sapiens, UniProt P12236)
T2 sequence (P12236 whole entry): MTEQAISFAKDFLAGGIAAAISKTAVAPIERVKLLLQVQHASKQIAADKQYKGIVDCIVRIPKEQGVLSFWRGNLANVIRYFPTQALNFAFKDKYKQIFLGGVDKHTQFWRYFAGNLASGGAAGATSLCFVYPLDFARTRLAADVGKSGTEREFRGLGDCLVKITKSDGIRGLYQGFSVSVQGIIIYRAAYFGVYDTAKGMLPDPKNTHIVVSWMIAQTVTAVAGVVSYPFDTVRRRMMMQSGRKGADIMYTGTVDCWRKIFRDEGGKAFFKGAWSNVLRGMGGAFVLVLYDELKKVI

SMILES	Kd
CN1CCC(CNc2ccc3ncc(-c4cccc(OC(F)(F)F)c4)n3n2)CC1 [SGI-1776]	> 30 µM (inactive)
C[C@@H]1CN(Cc2ccc(F)cc2)[C@@H](C)CN1C(=O)c1cc2c(C(=O)C(=O)N(C)C)cn(C)c2cc1Cl [TALMAPIMOD]	> 30 µM (inactive)
CN1CCC(COc2cnc(-c3cccc(Cn4nc(-c5cccc(C#N)c5)ccc4=O)c3)nc2)CC1 [TEPOTINIB]	> 30 µM (inactive)

Target: Serine/threonine-protein kinase 16 (Homo sapiens, UniProt O75716)

SMILES	Kd
CN1CCC(CNc2ccc3ncc(-c4cccc(OC(F)(F)F)c4)n3n2)CC1 [SGI-1776]	> 30 µM (inactive)
C[C@@H]1CN(Cc2ccc(F)cc2)[C@@H](C)CN1C(=O)c1cc2c(C(=O)C(=O)N(C)C)cn(C)c2cc1Cl [TALMAPIMOD]	> 30 µM (inactive)
CN1CCC(COc2cnc(-c3cccc(Cn4nc(-c5cccc(C#N)c5)ccc4=O)c3)nc2)CC1 [TEPOTINIB]	> 30 µM (inactive)

Target: Protein-tyrosine kinase 6 (Homo sapiens, UniProt Q13882)
Sequence (Q13882 whole entry): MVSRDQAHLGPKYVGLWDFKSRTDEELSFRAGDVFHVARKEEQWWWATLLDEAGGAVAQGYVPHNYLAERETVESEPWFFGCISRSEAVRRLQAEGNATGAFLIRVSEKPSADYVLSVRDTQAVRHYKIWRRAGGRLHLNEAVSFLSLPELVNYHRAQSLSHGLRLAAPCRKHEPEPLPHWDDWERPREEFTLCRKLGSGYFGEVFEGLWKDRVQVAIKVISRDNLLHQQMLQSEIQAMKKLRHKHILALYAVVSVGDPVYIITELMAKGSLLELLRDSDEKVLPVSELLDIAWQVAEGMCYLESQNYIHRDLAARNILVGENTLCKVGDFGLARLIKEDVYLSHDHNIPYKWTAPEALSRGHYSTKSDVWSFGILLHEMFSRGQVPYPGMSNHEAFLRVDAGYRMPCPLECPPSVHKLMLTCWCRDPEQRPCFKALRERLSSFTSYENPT

SMILES	Kd
CN1CCC(CNc2ccc3ncc(-c4cccc(OC(F)(F)F)c4)n3n2)CC1 [SGI-1776]	> 30 µM (inactive)
C[C@@H]1CN(Cc2ccc(F)cc2)[C@@H](C)CN1C(=O)c1cc2c(C(=O)C(=O)N(C)C)cn(C)c2cc1Cl [TALMAPIMOD]	> 30 µM (inactive)
CN1CCC(COc2cnc(-c3cccc(Cn4nc(-c5cccc(C#N)c5)ccc4=O)c3)nc2)CC1 [TEPOTINIB]	> 30 µM (inactive)

Target: Tyrosine-protein kinase Yes (Homo sapiens, UniProt P07947)
Sequence (P07947 whole entry): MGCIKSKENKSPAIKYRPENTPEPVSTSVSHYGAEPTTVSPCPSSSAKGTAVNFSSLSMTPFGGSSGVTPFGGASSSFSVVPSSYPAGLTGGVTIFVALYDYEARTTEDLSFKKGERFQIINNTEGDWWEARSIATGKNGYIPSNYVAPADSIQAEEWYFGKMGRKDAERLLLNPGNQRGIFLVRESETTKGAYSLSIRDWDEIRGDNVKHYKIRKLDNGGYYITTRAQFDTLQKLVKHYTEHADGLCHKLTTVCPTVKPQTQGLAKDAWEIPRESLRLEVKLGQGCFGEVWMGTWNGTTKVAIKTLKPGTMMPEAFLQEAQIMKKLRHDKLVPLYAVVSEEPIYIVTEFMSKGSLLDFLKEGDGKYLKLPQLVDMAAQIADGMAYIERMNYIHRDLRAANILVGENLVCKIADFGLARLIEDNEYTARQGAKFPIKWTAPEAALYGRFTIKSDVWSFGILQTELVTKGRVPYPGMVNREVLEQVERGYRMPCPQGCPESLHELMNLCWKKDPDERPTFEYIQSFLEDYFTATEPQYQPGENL

SMILES	Kd
CN1CCC(CNc2ccc3ncc(-c4cccc(OC(F)(F)F)c4)n3n2)CC1 [SGI-1776]	> 30 µM (inactive)
C[C@@H]1CN(Cc2ccc(F)cc2)[C@@H](C)CN1C(=O)c1cc2c(C(=O)C(=O)N(C)C)cn(C)c2cc1Cl [TALMAPIMOD]	> 30 µM (inactive)
CN1CCC(COc2cnc(-c3cccc(Cn4nc(-c5cccc(C#N)c5)ccc4=O)c3)nc2)CC1 [TEPOTINIB]	> 30 µM (inactive)

Target: Mitogen-activated protein kinase kinase kinase kinase 5 (Homo sapiens, UniProt Q9Y4K4)
Sequence (Q9Y4K4 whole entry): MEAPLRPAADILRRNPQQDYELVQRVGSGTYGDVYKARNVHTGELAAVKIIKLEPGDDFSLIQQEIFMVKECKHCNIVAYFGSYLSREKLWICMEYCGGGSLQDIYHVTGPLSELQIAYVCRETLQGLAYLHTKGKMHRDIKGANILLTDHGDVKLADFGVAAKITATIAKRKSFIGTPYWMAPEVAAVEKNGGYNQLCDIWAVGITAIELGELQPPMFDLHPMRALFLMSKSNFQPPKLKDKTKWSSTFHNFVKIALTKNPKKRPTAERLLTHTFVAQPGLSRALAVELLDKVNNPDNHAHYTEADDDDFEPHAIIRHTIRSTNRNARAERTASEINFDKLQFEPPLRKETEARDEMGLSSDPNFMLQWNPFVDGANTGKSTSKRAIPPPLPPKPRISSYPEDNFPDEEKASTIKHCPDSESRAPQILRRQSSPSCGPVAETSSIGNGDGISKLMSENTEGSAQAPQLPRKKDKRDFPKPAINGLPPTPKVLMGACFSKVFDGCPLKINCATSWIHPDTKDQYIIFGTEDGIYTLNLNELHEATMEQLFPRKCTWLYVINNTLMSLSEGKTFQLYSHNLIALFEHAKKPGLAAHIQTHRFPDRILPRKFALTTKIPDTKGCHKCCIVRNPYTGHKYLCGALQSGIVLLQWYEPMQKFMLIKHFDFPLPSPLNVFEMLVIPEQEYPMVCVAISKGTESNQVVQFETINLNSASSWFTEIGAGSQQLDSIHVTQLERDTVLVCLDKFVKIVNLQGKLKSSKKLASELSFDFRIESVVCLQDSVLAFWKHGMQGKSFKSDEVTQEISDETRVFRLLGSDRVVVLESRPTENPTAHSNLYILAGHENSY

SMILES	Kd
CN1CCC(CNc2ccc3ncc(-c4cccc(OC(F)(F)F)c4)n3n2)CC1 [SGI-1776]	> 30 µM (inactive)
C[C@@H]1CN(Cc2ccc(F)cc2)[C@@H](C)CN1C(=O)c1cc2c(C(=O)C(=O)N(C)C)cn(C)c2cc1Cl [TALMAPIMOD]	> 30 µM (inactive)
CN1CCC(COc2cnc(-c3cccc(Cn4nc(-c5cccc(C#N)c5)ccc4=O)c3)nc2)CC1 [TEPOTINIB]	> 30 µM (inactive)

Target: T3, Ras-related protein Rab-27A (Homo sapiens, UniProt P51159)
T3 sequence (P51159 whole entry): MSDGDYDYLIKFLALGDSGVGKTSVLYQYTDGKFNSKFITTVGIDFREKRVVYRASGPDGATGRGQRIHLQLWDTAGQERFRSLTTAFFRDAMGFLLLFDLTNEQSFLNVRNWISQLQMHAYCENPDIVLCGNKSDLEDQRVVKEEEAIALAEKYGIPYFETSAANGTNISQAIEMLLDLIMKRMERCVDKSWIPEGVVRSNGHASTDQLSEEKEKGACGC

SMILES	Kd
CN1CCC(CNc2ccc3ncc(-c4cccc(OC(F)(F)F)c4)n3n2)CC1 [SGI-1776]	> 30 µM (inactive)
C[C@@H]1CN(Cc2ccc(F)cc2)[C@@H](C)CN1C(=O)c1cc2c(C(=O)C(=O)N(C)C)cn(C)c2cc1Cl [TALMAPIMOD]	> 30 µM (inactive)
CN1CCC(COc2cnc(-c3cccc(Cn4nc(-c5cccc(C#N)c5)ccc4=O)c3)nc2)CC1 [TEPOTINIB]	> 30 µM (inactive)

Target: Ras-related protein Rab-6A (Homo sapiens, UniProt P20340)
Sequence (P20340 whole entry): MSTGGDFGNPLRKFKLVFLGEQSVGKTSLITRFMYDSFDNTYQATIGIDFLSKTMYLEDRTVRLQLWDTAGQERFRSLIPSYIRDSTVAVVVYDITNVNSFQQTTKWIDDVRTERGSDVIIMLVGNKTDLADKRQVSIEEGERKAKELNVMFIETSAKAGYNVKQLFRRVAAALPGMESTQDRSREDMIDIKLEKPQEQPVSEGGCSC

SMILES	Kd
CN1CCC(CNc2ccc3ncc(-c4cccc(OC(F)(F)F)c4)n3n2)CC1 [SGI-1776]	> 30 µM (inactive)
C[C@@H]1CN(Cc2ccc(F)cc2)[C@@H](C)CN1C(=O)c1cc2c(C(=O)C(=O)N(C)C)cn(C)c2cc1Cl [TALMAPIMOD]	> 30 µM (inactive)
CN1CCC(COc2cnc(-c3cccc(Cn4nc(-c5cccc(C#N)c5)ccc4=O)c3)nc2)CC1 [TEPOTINIB]	> 30 µM (inactive)

Target: T4, Interleukin-1 receptor-associated kinase 3 (Homo sapiens, UniProt Q9Y616)
T4 sequence (Q9Y616 whole entry): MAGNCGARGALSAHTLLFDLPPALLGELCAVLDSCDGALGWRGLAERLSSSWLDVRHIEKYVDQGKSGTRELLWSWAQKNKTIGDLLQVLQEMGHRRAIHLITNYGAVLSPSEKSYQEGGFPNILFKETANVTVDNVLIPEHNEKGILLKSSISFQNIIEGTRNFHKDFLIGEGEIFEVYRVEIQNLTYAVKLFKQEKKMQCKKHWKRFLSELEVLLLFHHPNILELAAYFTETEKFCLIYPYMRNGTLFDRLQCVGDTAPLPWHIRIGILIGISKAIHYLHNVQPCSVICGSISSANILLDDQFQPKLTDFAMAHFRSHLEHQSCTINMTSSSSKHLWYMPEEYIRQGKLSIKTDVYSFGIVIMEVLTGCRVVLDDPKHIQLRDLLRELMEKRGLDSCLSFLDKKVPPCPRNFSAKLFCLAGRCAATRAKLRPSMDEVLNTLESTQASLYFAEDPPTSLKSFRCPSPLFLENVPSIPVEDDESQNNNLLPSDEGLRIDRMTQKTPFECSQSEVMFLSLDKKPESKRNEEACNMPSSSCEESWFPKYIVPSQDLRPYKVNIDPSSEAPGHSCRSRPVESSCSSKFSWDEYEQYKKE

SMILES	Kd
CN1CCC(CNc2ccc3ncc(-c4cccc(OC(F)(F)F)c4)n3n2)CC1 [SGI-1776]	0.026 µM (active)
C[C@@H]1CN(Cc2ccc(F)cc2)[C@@H](C)CN1C(=O)c1cc2c(C(=O)C(=O)N(C)C)cn(C)c2cc1Cl [TALMAPIMOD]	> 30 µM (inactive)
CN1CCC(COc2cnc(-c3cccc(Cn4nc(-c5cccc(C#N)c5)ccc4=O)c3)nc2)CC1 [TEPOTINIB]	> 30 µM (inactive)

Target: T5, Ferrochelatase, mitochondrial (Homo sapiens, UniProt P22830)
T5 sequence (P22830 whole entry): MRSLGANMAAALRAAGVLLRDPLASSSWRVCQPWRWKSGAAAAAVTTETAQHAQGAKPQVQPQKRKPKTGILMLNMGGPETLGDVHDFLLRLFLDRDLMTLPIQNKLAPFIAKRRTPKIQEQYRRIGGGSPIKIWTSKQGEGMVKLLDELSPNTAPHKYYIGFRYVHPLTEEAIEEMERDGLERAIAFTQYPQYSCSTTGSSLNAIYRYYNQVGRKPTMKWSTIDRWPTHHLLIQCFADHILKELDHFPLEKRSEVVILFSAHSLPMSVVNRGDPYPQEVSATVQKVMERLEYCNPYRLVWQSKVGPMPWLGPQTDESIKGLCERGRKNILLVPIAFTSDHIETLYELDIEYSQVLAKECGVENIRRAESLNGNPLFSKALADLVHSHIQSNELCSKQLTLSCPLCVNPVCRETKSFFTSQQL

SMILES	Kd
CN1CCC(CNc2ccc3ncc(-c4cccc(OC(F)(F)F)c4)n3n2)CC1 [SGI-1776]	> 30 µM (inactive)
C[C@@H]1CN(Cc2ccc(F)cc2)[C@@H](C)CN1C(=O)c1cc2c(C(=O)C(=O)N(C)C)cn(C)c2cc1Cl [TALMAPIMOD]	> 30 µM (inactive)
CN1CCC(COc2cnc(-c3cccc(Cn4nc(-c5cccc(C#N)c5)ccc4=O)c3)nc2)CC1 [TEPOTINIB]	> 30 µM (inactive)

Target: Mitotic checkpoint serine/threonine-protein kinase BUB1 (Homo sapiens, UniProt O43683)
Sequence (O43683 whole entry): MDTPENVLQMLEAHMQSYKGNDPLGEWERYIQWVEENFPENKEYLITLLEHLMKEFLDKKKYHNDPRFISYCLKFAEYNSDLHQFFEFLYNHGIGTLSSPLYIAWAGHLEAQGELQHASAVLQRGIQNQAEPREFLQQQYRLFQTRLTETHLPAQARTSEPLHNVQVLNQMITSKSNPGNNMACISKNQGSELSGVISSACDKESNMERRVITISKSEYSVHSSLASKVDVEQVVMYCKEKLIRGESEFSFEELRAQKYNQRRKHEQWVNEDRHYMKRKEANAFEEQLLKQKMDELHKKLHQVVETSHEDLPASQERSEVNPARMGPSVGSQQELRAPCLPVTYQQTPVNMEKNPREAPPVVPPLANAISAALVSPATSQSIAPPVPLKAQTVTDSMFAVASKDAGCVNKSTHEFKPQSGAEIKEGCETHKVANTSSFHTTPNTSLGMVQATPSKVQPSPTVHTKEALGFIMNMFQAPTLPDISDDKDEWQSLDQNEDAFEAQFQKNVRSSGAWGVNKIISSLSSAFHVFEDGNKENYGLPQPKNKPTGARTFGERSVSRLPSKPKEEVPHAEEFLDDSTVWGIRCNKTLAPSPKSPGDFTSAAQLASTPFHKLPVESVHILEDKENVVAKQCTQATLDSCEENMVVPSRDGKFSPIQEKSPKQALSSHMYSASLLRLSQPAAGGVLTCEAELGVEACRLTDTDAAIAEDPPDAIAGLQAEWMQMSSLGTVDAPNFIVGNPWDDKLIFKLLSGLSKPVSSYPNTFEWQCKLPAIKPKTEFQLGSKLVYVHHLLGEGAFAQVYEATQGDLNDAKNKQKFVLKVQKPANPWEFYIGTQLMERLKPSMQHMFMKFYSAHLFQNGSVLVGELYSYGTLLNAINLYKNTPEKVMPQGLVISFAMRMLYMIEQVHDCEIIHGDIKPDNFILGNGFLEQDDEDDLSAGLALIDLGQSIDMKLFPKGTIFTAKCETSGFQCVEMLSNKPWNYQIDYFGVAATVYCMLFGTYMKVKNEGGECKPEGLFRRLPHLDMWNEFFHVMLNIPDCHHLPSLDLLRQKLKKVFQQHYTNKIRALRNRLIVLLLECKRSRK

SMILES	Kd
CN1CCC(CNc2ccc3ncc(-c4cccc(OC(F)(F)F)c4)n3n2)CC1 [SGI-1776]	> 30 µM (inactive)
C[C@@H]1CN(Cc2ccc(F)cc2)[C@@H](C)CN1C(=O)c1cc2c(C(=O)C(=O)N(C)C)cn(C)c2cc1Cl [TALMAPIMOD]	> 30 µM (inactive)
CN1CCC(COc2cnc(-c3cccc(Cn4nc(-c5cccc(C#N)c5)ccc4=O)c3)nc2)CC1 [TEPOTINIB]	> 30 µM (inactive)
